Reference: patent US20120077804A1, “Small Molecule Inhibitors of RNA Silencing” (The Regents of the University of California, priority 2007, published 2012)

Legend:
[1] = tested on: RNAi-mediated innate immunity against virus infection in cultured Drosophila cells; test: Cell-based high throughput screen, GFP expression in R1gfp cells after induction of FHV replication
Text: A cell-based high throughput screening protocol for the identification of chemical inhibitors of the RNAi-mediated innate immunity against virus infection in cultured Drosophila cells has been established. The system is based on Flock house virus (FHV), an animal Nodavirus that contains a bipartite RNA genome. FHV RNA2 encodes the single virion structural protein, whereas FHV RNA1 encodes the viral RNA-dependent RNA polymerase (RdRP) and B2, a viral suppressor of RNAi (VSR) expressed after RNA1 replication from its own mRNA, RNA3. In the absence of RNA2, RNA1 replicates autonomously, accumulates to high levels, and produces abundant RNA3 in Drosophila cells. […] Similarly, green fluorescence is not detectable in wild type Drosophila cells transfected with pR1gfp, which encodes a recombinant RNA1 in which the viral B2 gene is replaced with green fluorescent protein (GFP) gene. A stable Drosophila Schneider 2 cell line has been established, and carries pR1gfp, called line R1gfp. R1gfp cells were seeded in 96-well plates and incubated overnight with chemicals from ChemBridge Diverset Library before FHV replication was induced. Expression of GFP was screened in R1gfp cells two days following the induction of FHV replication (see, Li et al., Proc Natl Acad Sci USA 2004, 101(5), 1350-5).

[2] = tested on: RNAi induced by synthetic double-stranded RNA (dsRNA); test: Northern blot of Cyclin A mRNA in S2 cells, RNAi induced by synthetic dsRNA (dsCycA); format: cell-based, Drosophila; settings: for Degradation of cyclin A mRNA targeted by dsCycA: dsCycA plus 30 μM compound
Text: FIG. 2 illustrates the northern blot detection of Cyclin A mRNA in S2 cells.
Degradation of cyclin A mRNA occurred in S2 cells transfected with a dsRNA specific to cyclin A (dsCycA) (see, FIG. 2, lanes 1-2), but not in cells treated with a GFP-specific dsRNA (dsGFP) (see, FIG. 2, lane 8). […] Similar inhibition of cyclin A RNAi was also observed in cells co-transfected with a dsRNA targeting mRNA of Drosophila Ago2 (see, FIG. 2, lane 9), which is essential for RNAi in Drosophila.

SMILES | Inhibition of RNAi-mediated viral immunity (detection of green fluorescence) [1] | Inhibition of RNAi induced by synthetic double-stranded RNA (dsRNA) [2] | Degradation of cyclin A mRNA targeted by dsCycA [2]
COc1ccc(CN2CCN(S(=O)(=O)c3ccc(C)cc3)CC2)cc1OCc1ccccc1 [Rin2, 1-[3-(benzyloxy)-4-methoxybenzyl]-4-[(4-methylphenyl)sulfony]piperazine] | inhibit the RNAi-mediated viral immunity | active inhibitors | partially inhibited
CCN(CC)c1ccc(/C=C2/C(=O)NN(c3ccc(C)c(Cl)c3)C2=O)c(O)c1 [Rin3, 1-(3-chloro-4-methylphenyl)-4-[4-(diethylamino)-2-hydroxybenzylidene]-3,5-pyrazolidinedione] | inhibit the RNAi-mediated viral immunity | active inhibitors | partially inhibited
